# Source: paper PMC11212140, “Molecular Bidents with Two Electrophilic Warheads as a New Pharmacological Modality” (ACS Central Science, 2024)
# What was measured:
# Assay in all cases: KiNativ profiling in H3255 cells
# Format in all cases: cell-based, human
# [1] = test system: CDK11, CDK8; details: 2.5 µM; Lys2; DLKPANILVMGEGPER
# [2] = test system: T1, CCRK; details: 2.5 µM; Lys2; DLKPANLLISASGQLK
# T1 construct: purchased ActivX Biosciences (KiNativ)
# Protocol: (§1) treatment. Cell viability was determined by using CellTiter-Glo (Promega #G7571) according to the manufacturer’s instructions, measuring luminescence using an Envision plate-reader (PerkinElmer Inc.). Dose-response curves were generated using non-linear regression curve fit in GraphPad Prism 9.2.0(GraphPad Software).
# (§2) Cellular target engagement assays
# (§3) After 6 hours treatment, cells were pelleted, washed with PBS once and lysed with IP lysis buffer (25mMTris-HCl pH 7.4, 150mM NaCl, 1 mM EDTA, 1% NP-40 and 5% glycerol) (Thermo Fisher Scientific, Cat#87788) containing protease/phosphatase inhibitor cocktail (Roche). The protein concentrations were measured by BCA analysis (Pierce). Cell lysates were incubated with 1 μM of biotin conjugated probe (bio-Osimertinib or bio-ZNL-0013) at 4 ℃ overnight, and incubated for 3 more hours at room temperature. Lysates with probe were then incubated with streptavidin beads (Thermo Fisher, #20349) for 2 hours at 4 ℃. The protein-probe complexes on the beads were then subjected to immunoblotting.
# (§4) H3255 cells were plated with 6.5x10^6 per condition in fresh media in 15 cm plates and treated the 80% confluency for 2 hours with DMSO or 2.5 μM of ZNL-0056. To harvest cells, plates were washed 3 times with cold PBS, then collected by scraping into 4 mL of cold PBS containing protease and phosphatase inhibitors. Cells were pelleted by centrifugation at 1350 g at 4 ℃ for 5 minutes and immediately frozen in liquid nitrogen. The frozen samples were sent to ActivX Biosciences (La Jolla, CA) for the remainder of the KiNativ profiling experiment4.
# (§5) Protein expression and purification
# (§6) Human EGFR kinase domain (residues 696-1022) with T790M and V948R mutations was cloned with an N-terminal, protease cleavable His -GST tag. Recombinant protein was expressed in SF9 insect cells using baculovirus generated from the pFastBac system (Thermo Fisher) .
# (§7) Briefly, cells at a density of ~2x10^6 cells/mL were infected with 1% (v/v) virus stock and grown for ~72 hours before harvesting and freezing the cell pellet . Infected cells were lysed in buffer A (50 mM Tris pH 8.0, 500 mM NaCl, 5% glycerol, 0.5 mM Tris(2-carboxyethyl)phosphine [TCEP]), ultracentrifuged at >200,000 rcf for 1 h, and the supernatant flo wed through Ni-NTA resin by gravity. The resin was washed with buffer A supplemented with 40 mM imidazole by […]
# [3] = test system: T2, CDK7; details: 2.5 µM
# T2 construct: purchased ActivX Biosciences (KiNativ)
# Protocol: as §1, §2, §3, §4, §5, §6, §7
# [4] = test system: T3, DGKA; details: 2.5 µM; ATP; IDPVPNTHPLLVFVNPKSGGK
# T3 construct: purchased ActivX Biosciences (KiNativ)
# Protocol: as §1, §2, §3, §4, §5, §6, §7
# [5] = test system: T4, EGFR, EGFR-L858R; details: 2.5 µM
# T4 construct: purchased ActivX Biosciences (KiNativ)
# Protocol: as §1, §2, §3, §4, §5, §6, §7
# [6] = test system: T5, GSK3A; details: 2.5 µM; Lys2; DIKPQNLLVDPDTAVLK
# T5 construct: purchased ActivX Biosciences (KiNativ)
# Protocol: as §1, §2, §3, §4, §5, §6, §7
# [7] = test system: JNK1, JNK2, JNK3; details: 2.5 µM; Lys2; DLKPSNIVVK
# Protocol: as §1, §2, §3, §4, §5, §6, §7
# [8] = test system: T6, MAP2K7; details: 2.5 µM; Lys2; DVKPSNILLDER
# T6 construct: purchased ActivX Biosciences (KiNativ)
# Protocol: as §1, §2, §3, §4, §5, §6, §7
# [9] = test system: T7, MAP3K3; details: 2.5 µM; Lys1; ELASKQVQFDPDSPETSKEVSALECEIQLLK
# T7 construct: purchased ActivX Biosciences (KiNativ)
# Protocol: as §1, §2, §3, §4, §5, §6, §7
# [10] = test system: T8, MAP3K6; details: 2.5 µM; Lys2; DIKGDNVLINTFSGLLK
# T8 construct: purchased ActivX Biosciences (KiNativ)
# Protocol: as §1, §2, §3, §4, §5, §6, §7
# [11] = test system: MARK3, MARK4; details: 2.5 µM; Lys1; EVAIKIIDK
# Protocol: as §1, §2, §3, §4, §5, §6, §7
# [12] = test system: T9, MAST3; details: 2.5 µM; Lys2; DLKPDNLLITSLGHIK
# T9 construct: purchased ActivX Biosciences (KiNativ)
# Protocol: as §1, §2, §3, §4, §5, §6, §7
# [13] = test system: T10, MASTL; details: 2.5 µM
# T10 construct: purchased ActivX Biosciences (KiNativ)
# Protocol: as §1, §2, §3, §4, §5, §6, §7
# [14] = test system: T11, MLK1; details: 2.5 µM; Lys2; DLKSSNILILQK
# T11 construct: purchased ActivX Biosciences (KiNativ)
# Protocol: as §1, §2, §3, §4, §5, §6, §7
# [15] = test system: T12, MSK1 domain1; details: 2.5 µM; Lys2; DIKLENILLDSNGHVVLTDFGLSK
# T12 construct: MSK1 domain1; purchased ActivX Biosciences (KiNativ)
# Protocol: as §1, §2, §3, §4, §5, §6, §7
# [16] = test system: MST4, YSK1; details: 2.5 µM; Lys2; DIKAANVLLSEQGDVK
# Protocol: as §1, §2, §3, §4, §5, §6, §7
# [17] = test system: T13, NEK2; details: 2.5 µM; Lys2; DLKPANVFLDGK
# T13 construct: purchased ActivX Biosciences (KiNativ)
# Protocol: as §1, §2, §3, §4, §5, §6, §7
# [18] = test system: T14, NEK9; details: 2.5 µM
# T14 construct: purchased ActivX Biosciences (KiNativ)
# Protocol: as §1, §2, §3, §4, §5, §6, §7
# [19] = test system: T15, PCTAIRE2; details: 2.5 µM; Lys2; DLKPQNLLINEK
# T15 construct: purchased ActivX Biosciences (KiNativ)
# Protocol: as §1, §2, §3, §4, §5, §6, §7
# [20] = test system: T16, PDK1; details: 2.5 µM; Lys1; EYAIKILEK
# T16 construct: purchased ActivX Biosciences (KiNativ)
# Protocol: as §1, §2, §3, §4, §5, §6, §7
# [21] = test system: T17, VRK2; details: 2.5 µM; Lys2; MLDVLEYIHENEYVHGDIKAANLLLGYK
# T17 construct: purchased ActivX Biosciences (KiNativ)
# Protocol: as §1, §2, §3, §4, §5, §6, §7
# [22] = test system: T18, JAK1 domain2; details: 2.5 µM
# T18 construct: JAK1 domain2; purchased ActivX Biosciences (KiNativ)
# [23] = test system: T19, LKB1; details: 2.5 µM; Lys2; DIKPGNLLLTTGGTLK
# T19 construct: purchased ActivX Biosciences (KiNativ)
# [24] = Activation Loop, IGDFGLTKAIETDKEYYTVK
# [25] = Lys1, YDPEGDNTGEQVAVKSLKPESGGNHIADLKK
Structure (SMILES),Inhibition [1] [%],Inhibition [2] [%],"Inhibition ([3]; Lys1, DKNTNQIVAIKK) [%]","Inhibition ([3]; Lys2, DLKPNNLLLDENGVLK) [%]",Inhibition [4] [%],"Inhibition ([5]; Lys1, IPVAIKELR) [%]",Inhibition [6] [%],Inhibition [7] [%],Inhibition [8] [%],Inhibition [9] [%],Inhibition [10] [%],Inhibition [11] [%],Inhibition [12] [%],"Inhibition ([13]; ATP Loop, GAFGKVYLGQK) [%]","Inhibition ([13]; Lys1, LYAVKVVK) [%]",Inhibition [14] [%],Inhibition [15] [%],Inhibition [16] [%],Inhibition [17] [%],"Inhibition ([18]; Activation Loop, LGDYGLAKK) [%]",other results
"C=CC(=O)Nc1cc(Nc2nccc(-c3cn(C)c4ccccc34)n2)c(OC)cc1N(C)CCN(C)C [Osimertinib, osimertinib, reference compound]",24.8,16.1,34.0,14.2,-5.7,96.8,-5.2,13.4,-1.4,10.8,-16.3,-12.5,-21.8,16.6,23.8,34.9,-10.4,-8.7,-4.3,-11.0,"Inhibition ([5]; Activation Loop, […]): 90.8%; Inhibition ([18]; Lys1, RTEDDSLVVWKEVDLTR): -18.7%; Inhibition ([18]; Lys2, DIKTLNIFLTK): -12.2%; Inhibition [19]: 2.6%; Inhibition [20]: -20.7%; Inhibition [21]: 6.4%; Inhibition [22, 24]: -24.5%; Inhibition [22, 25]: -22.2%; Inhibition [23]: -3.9%"
C=CC(=O)Nc1cc(C(=O)Nc2nc3cccc(C)c3n2[C@@H]2CCCCN(C(=O)C=C)C2)cs1 [ZNL-0056],-0.339,2.1,-17.3,-3.1,14.0,94.3,11.5,-5.1,90.7,-6.3,20.5,16.2,3.9,13.0,16.2,-4.3,10.0,-9.0,-9.4,-6.5,"Inhibition ([5]; Activation Loop, LLGAEEKEYHAEGGKVPIK): 83.2%; Inhibition ([18]; Lys1, RTEDDSLVVWKEVDLTR): 3.2%; Inhibition ([18]; Lys2, DIKTLNIFLTK): 4.4%; Inhibition [19]: -15.1%; Inhibition [20]: 17.6%; Inhibition [21]: 7.9%; Inhibition [22, 24]: 4.7%; Inhibition [22, 25]: 4.4%; Inhibition [23]: 0.756%"
